Source: ChEMBL document CHEMBL2094260, “Malaria Box Tuberculosis Screening Data”
Values after ≈ are worked out from the molar mass of the structure shown.

Test system: Mycobacterium tuberculosis
Assay: MMV: CRC and MIC90 against Mtb (non replicating)
Assay type: functional
Details: not given

Structure (SMILES)	MIC90
Cc1nc2ccccc2c(O)c1CC=C(Cl)Cl	> 100 µM
Nc1ccc(-c2nc3cc(Oc4ccc(Oc5ccc6[nH]c(-c7ccc(N)cc7)nc6c5)cc4)ccc3[nH]2)cc1	> 100 µM
CCCCOC(=O)c1ccc(Nc2cc(C)nc3ccc(OC)cc23)cc1	> 100 µM
CCOC(=O)c1cnc2ccc(OC)cc2c1Nc1ccc(N2CCN(C)CC2)cc1	> 100 µM
Cc1ccc(Cl)cc1N1CCN(CCCNC(=O)C2CCN(c3nc4ccccc4[nH]3)CC2)CC1	> 100 µM
CC(C)CCNCC(O)Cn1c2ccccc2c2ccccc21 (stereo not given)	> 100 µM
N=c1n(CCN2CCCCC2)c2ccccc2n1CC(=O)c1ccc(Cl)c(Cl)c1	> 100 µM
Brc1ccc(Nc2nc3ccccc3nc2Nc2ccc(Br)cc2)cc1	11.5 µM (≈ 5.41 µg/mL)
C[n+]1c2ccccc2nc2ccc(NCCO)cc21	> 100 µM
COc1ccc(C2NCCc3c2[nH]c2ccccc32)cc1CN1CCN(c2ccc(F)cc2)CC1 (stereo not given)	> 100 µM
Cc1ccc(Nc2nc(N)c3ccccc3n2)cc1Cl	> 100 µM
c1ccc(CNc2nc(Nc3ccccc3)nc3ccccc23)cc1	39.4 µM (≈ 12.9 µg/mL)
CC(C)(C)CC(C)(C)NCC(O)COc1ccc(Cl)cc1Cl (stereo not given)	40.2 µM (≈ 14 µg/mL)
Cc1ccc(Nc2nc(NCCO)c3ccccc3n2)cc1C	82.6 µM (≈ 25.5 µg/mL)
O=C1c2ccc3c4c(ccc(c24)C(=O)N1CCCCO)C(=O)N(CCCCO)C3=O	79.1 µM (≈ 32.5 µg/mL)
COc1cccc(Nc2nc(NCCO)c3ccccc3n2)c1	> 100 µM
CC(C)(C)CC(C)(C)NCC(O)COc1ccc2c(c1)CCC2 (stereo not given)	> 100 µM
O=C(Nc1ccc(Br)cc1)Nc1cccc(Cl)c1	> 100 µM
COc1ccc(C2c3ccc4ccccc4c3Oc3ncn(CCCN(C)C)c(=N)c32)cc1 (stereo not given)	> 100 µM
CN1CCN(c2ccc(Nc3c4ccccc4nc4ccccc34)cc2)CC1	27.7 µM (≈ 10.2 µg/mL)

Test system: Mycobacterium tuberculosis
Assay: MMV: CRC and MIC90 against Mtb (replicating)
Assay type: functional
Details: not given

Structure (SMILES)	MIC90
Cc1nc2ccccc2c(O)c1CC=C(Cl)Cl	14.3 µM (≈ 3.83 µg/mL)
Nc1ccc(-c2nc3cc(Oc4ccc(Oc5ccc6[nH]c(-c7ccc(N)cc7)nc6c5)cc4)ccc3[nH]2)cc1	19.2 µM (≈ 10.1 µg/mL)
CCCCOC(=O)c1ccc(Nc2cc(C)nc3ccc(OC)cc23)cc1	94.9 µM (≈ 34.6 µg/mL)
CCOC(=O)c1cnc2ccc(OC)cc2c1Nc1ccc(N2CCN(C)CC2)cc1	35.9 µM (≈ 15.1 µg/mL)
Cc1ccc(Cl)cc1N1CCN(CCCNC(=O)C2CCN(c3nc4ccccc4[nH]3)CC2)CC1	39 µM (≈ 19.3 µg/mL)
CC(C)CCNCC(O)Cn1c2ccccc2c2ccccc21 (stereo not given)	22.9 µM (≈ 7.11 µg/mL)
N=c1n(CCN2CCCCC2)c2ccccc2n1CC(=O)c1ccc(Cl)c(Cl)c1	21.1 µM (≈ 9.1 µg/mL)
Brc1ccc(Nc2nc3ccccc3nc2Nc2ccc(Br)cc2)cc1	3.73 µM (≈ 1.75 µg/mL)
C[n+]1c2ccccc2nc2ccc(NCCO)cc21	6 µM
COc1ccc(C2NCCc3c2[nH]c2ccccc32)cc1CN1CCN(c2ccc(F)cc2)CC1 (stereo not given)	25.9 µM (≈ 12.2 µg/mL)
Cc1ccc(Nc2nc(N)c3ccccc3n2)cc1Cl	24.7 µM (≈ 7.03 µg/mL)
c1ccc(CNc2nc(Nc3ccccc3)nc3ccccc23)cc1	7.46 µM (≈ 2.43 µg/mL)
CC(C)(C)CC(C)(C)NCC(O)COc1ccc(Cl)cc1Cl (stereo not given)	4.47 µM (≈ 1.56 µg/mL)
Cc1ccc(Nc2nc(NCCO)c3ccccc3n2)cc1C	9.52 µM (≈ 2.94 µg/mL)
O=C1c2ccc3c4c(ccc(c24)C(=O)N1CCCCO)C(=O)N(CCCCO)C3=O	36.5 µM (≈ 15 µg/mL)
COc1cccc(Nc2nc(NCCO)c3ccccc3n2)c1	27.3 µM (≈ 8.47 µg/mL)
CC(C)(C)CC(C)(C)NCC(O)COc1ccc2c(c1)CCC2 (stereo not given)	35.6 µM (≈ 11.4 µg/mL)
O=C(Nc1ccc(Br)cc1)Nc1cccc(Cl)c1	44.6 µM (≈ 14.5 µg/mL)
COc1ccc(C2c3ccc4ccccc4c3Oc3ncn(CCCN(C)C)c(=N)c32)cc1 (stereo not given)	16.9 µM (≈ 7.45 µg/mL)
CN1CCN(c2ccc(Nc3c4ccccc4nc4ccccc34)cc2)CC1	45.1 µM (≈ 16.6 µg/mL)

Test system: not listed separately
Assay: MMV: Cytotoxicity CRC and LD50 against HepG2
Assay type: toxicity, cell-based
Details: human, HepG2 cells; read-out: LD50 (the source's name)

Structure (SMILES)	CC50
Cc1nc2ccccc2c(O)c1CC=C(Cl)Cl	98.8 µM
Nc1ccc(-c2nc3cc(Oc4ccc(Oc5ccc6[nH]c(-c7ccc(N)cc7)nc6c5)cc4)ccc3[nH]2)cc1	5.37 µM
CCCCOC(=O)c1ccc(Nc2cc(C)nc3ccc(OC)cc23)cc1	6.93 µM
CCOC(=O)c1cnc2ccc(OC)cc2c1Nc1ccc(N2CCN(C)CC2)cc1	22.8 µM
Cc1ccc(Cl)cc1N1CCN(CCCNC(=O)C2CCN(c3nc4ccccc4[nH]3)CC2)CC1	4.79 µM
CC(C)CCNCC(O)Cn1c2ccccc2c2ccccc21 (stereo not given)	4.74 µM
N=c1n(CCN2CCCCC2)c2ccccc2n1CC(=O)c1ccc(Cl)c(Cl)c1	6.5 µM
Brc1ccc(Nc2nc3ccccc3nc2Nc2ccc(Br)cc2)cc1	2.69 µM
C[n+]1c2ccccc2nc2ccc(NCCO)cc21	6.65 µM
COc1ccc(C2NCCc3c2[nH]c2ccccc32)cc1CN1CCN(c2ccc(F)cc2)CC1 (stereo not given)	2.28 µM
Cc1ccc(Nc2nc(N)c3ccccc3n2)cc1Cl	10.9 µM
c1ccc(CNc2nc(Nc3ccccc3)nc3ccccc23)cc1	4.16 µM
CC(C)(C)CC(C)(C)NCC(O)COc1ccc(Cl)cc1Cl (stereo not given)	3.51 µM
Cc1ccc(Nc2nc(NCCO)c3ccccc3n2)cc1C	5.5 µM
O=C1c2ccc3c4c(ccc(c24)C(=O)N1CCCCO)C(=O)N(CCCCO)C3=O	0.904 µM
COc1cccc(Nc2nc(NCCO)c3ccccc3n2)c1	26 µM
CC(C)(C)CC(C)(C)NCC(O)COc1ccc2c(c1)CCC2 (stereo not given)	8.32 µM
O=C(Nc1ccc(Br)cc1)Nc1cccc(Cl)c1	18.6 µM
COc1ccc(C2c3ccc4ccccc4c3Oc3ncn(CCCN(C)C)c(=N)c32)cc1 (stereo not given)	1.53 µM
CN1CCN(c2ccc(Nc3c4ccccc4nc4ccccc34)cc2)CC1	0.654 µM

Test system: Mycobacterium tuberculosis
Assay: MMV: Screen against Mtb, single point, replicating, at 25uM
Assay type: functional
Details: not given

Structure (SMILES)	inhibition at 25 µM
Cc1nc2ccccc2c(O)c1CC=C(Cl)Cl	91%
Nc1ccc(-c2nc3cc(Oc4ccc(Oc5ccc6[nH]c(-c7ccc(N)cc7)nc6c5)cc4)ccc3[nH]2)cc1	98.8%
CCCCOC(=O)c1ccc(Nc2cc(C)nc3ccc(OC)cc23)cc1	96.5%
CCOC(=O)c1cnc2ccc(OC)cc2c1Nc1ccc(N2CCN(C)CC2)cc1	78.8%
Cc1ccc(Cl)cc1N1CCN(CCCNC(=O)C2CCN(c3nc4ccccc4[nH]3)CC2)CC1	75.7%
CC(C)CCNCC(O)Cn1c2ccccc2c2ccccc21 (stereo not given)	83.6%
N=c1n(CCN2CCCCC2)c2ccccc2n1CC(=O)c1ccc(Cl)c(Cl)c1	96.3%
Brc1ccc(Nc2nc3ccccc3nc2Nc2ccc(Br)cc2)cc1	101%
C[n+]1c2ccccc2nc2ccc(NCCO)cc21	84.9%
COc1ccc(C2NCCc3c2[nH]c2ccccc32)cc1CN1CCN(c2ccc(F)cc2)CC1 (stereo not given)	87.9%
Cc1ccc(Nc2nc(N)c3ccccc3n2)cc1Cl	96.6%
c1ccc(CNc2nc(Nc3ccccc3)nc3ccccc23)cc1	96.2%
CC(C)(C)CC(C)(C)NCC(O)COc1ccc(Cl)cc1Cl (stereo not given)	98.5%
Cc1ccc(Nc2nc(NCCO)c3ccccc3n2)cc1C	97.2%
O=C1c2ccc3c4c(ccc(c24)C(=O)N1CCCCO)C(=O)N(CCCCO)C3=O	89.3%
COc1cccc(Nc2nc(NCCO)c3ccccc3n2)c1	81.8%
CC(C)(C)CC(C)(C)NCC(O)COc1ccc2c(c1)CCC2 (stereo not given)	70.7%
O=C(Nc1ccc(Br)cc1)Nc1cccc(Cl)c1	59.6%
COc1ccc(C2c3ccc4ccccc4c3Oc3ncn(CCCN(C)C)c(=N)c32)cc1 (stereo not given)	98.1%
CN1CCN(c2ccc(Nc3c4ccccc4nc4ccccc34)cc2)CC1	63.8%

Test system: Mycobacterium tuberculosis
Assay: MMV: Screen against Mtb, single point, non replicating, at 25uM
Assay type: functional
Details: not given

Structure (SMILES)	inhibition at 25 µM
Cc1nc2ccccc2c(O)c1CC=C(Cl)Cl	0.782%
Nc1ccc(-c2nc3cc(Oc4ccc(Oc5ccc6[nH]c(-c7ccc(N)cc7)nc6c5)cc4)ccc3[nH]2)cc1	11.8%
CCCCOC(=O)c1ccc(Nc2cc(C)nc3ccc(OC)cc23)cc1	24.7%
CCOC(=O)c1cnc2ccc(OC)cc2c1Nc1ccc(N2CCN(C)CC2)cc1	31.3%
Cc1ccc(Cl)cc1N1CCN(CCCNC(=O)C2CCN(c3nc4ccccc4[nH]3)CC2)CC1	26.9%
CC(C)CCNCC(O)Cn1c2ccccc2c2ccccc21 (stereo not given)	16.6%
N=c1n(CCN2CCCCC2)c2ccccc2n1CC(=O)c1ccc(Cl)c(Cl)c1	17.6%
Brc1ccc(Nc2nc3ccccc3nc2Nc2ccc(Br)cc2)cc1	100%
C[n+]1c2ccccc2nc2ccc(NCCO)cc21	37.7%
COc1ccc(C2NCCc3c2[nH]c2ccccc32)cc1CN1CCN(c2ccc(F)cc2)CC1 (stereo not given)	15.9%
Cc1ccc(Nc2nc(N)c3ccccc3n2)cc1Cl	7.17%
c1ccc(CNc2nc(Nc3ccccc3)nc3ccccc23)cc1	21.2%
CC(C)(C)CC(C)(C)NCC(O)COc1ccc(Cl)cc1Cl (stereo not given)	30.2%
Cc1ccc(Nc2nc(NCCO)c3ccccc3n2)cc1C	7.14%
O=C1c2ccc3c4c(ccc(c24)C(=O)N1CCCCO)C(=O)N(CCCCO)C3=O	39.6%
COc1cccc(Nc2nc(NCCO)c3ccccc3n2)c1	14.8%
CC(C)(C)CC(C)(C)NCC(O)COc1ccc2c(c1)CCC2 (stereo not given)	-3.5%
O=C(Nc1ccc(Br)cc1)Nc1cccc(Cl)c1	38.6%
COc1ccc(C2c3ccc4ccccc4c3Oc3ncn(CCCN(C)C)c(=N)c32)cc1 (stereo not given)	47.1%
CN1CCN(c2ccc(Nc3c4ccccc4nc4ccccc34)cc2)CC1	44.1%
